Results from patent US20080269343A1, “GALENIC FORMULATIONS OF ORGANIC COMPOUNDS” (priority 2004, published 2008).

Columns and labels:
[1] = Steady-state pharmacokinetics of aliskiren 300 mg alone, digoxin interaction study, Day 7 (Example 8); type: in vivo, human; conditions: 300 mg daily, Day 7, healthy volunteers N 21; for AUC / Cmax / Tmax: human, in vivo, oral, 300 mg
Method: The study employed was an open-label, two-period, multiple-dose design to evaluate the pharmacokinetic drug-drug interaction between digoxin and aliskiren when given alone or in combination to healthy volunteers. A total of 22 healthy volunteers were enrolled into the study. The subjects were admitted to the study center at least 24 hours prior to the initial dosing of aliskiren for baseline evaluation. If subjects met all eligibility criteria at baseline, they were randomized into the study and confined to the clinic on days 1-7 and days 17-33. All study medications were taken under fasted condition. The study was completed with the end of study evaluations on Day 34, after the last blood sample was collected.
In period 1 (Days 1-7), subjects received a single 300 mg daily dose of aliskiren for 7 days. Period 1 was followed by a ten (10) day washout period. In period 2, subjects received a single 0.25 mg daily dose of digoxin for 9 days (Days 18-26) and aliskiren 300 mg once a day with a single 0.25 mg daily dose of digoxin co-administered for 7 days (Days 27-33).
Pharmacokinetic blood sampling for aliskiren alone occurred on Day 7 up to 24 hours post dose (5-mL blood samples were collected into lithium heparin tubes on Day 7 of the study at pre-dose, 0.5, 1, 2, 3, 4, 6, 8, 12, 16 and 24 hours after dosing).

[2] = Ranges of arithmetic mean plasma pharmacokinetic parameters provided by the 300 mg solid oral dosage form (summary of the studies); type: in vivo; conditions: human, range of study means
Method: (§1) For example, the present invention provides a solid oral dosage form comprising about 300 mg of aliskiren free base, or a respective amount of a pharmaceutically acceptable salt thereof, and a carrier medium, said dosage form providing an arithmetic mean maximum plasma concentration of aliskiren ranging from about 186 to about 394 ng/mL between about 0.25 and about 6 hours following administration of a single dosage of said dosage form.
as §1, with “Furthermore,” for “For example,”, “mg” for “mg of”, “AUC0-96” for “maximum plasma concentration”, “1480” for “186”, “1859 ng·h/mL” for “394 ng/mL between about 0.25 and about 6 hours”, “form. […]” for “form.”
The above description fully discloses the invention including preferred embodiments thereof. […] Arithmetic means for Cmax are calculated using the actual time points when the Cmax is observed whereas for the mean concentration versus time plots the nominal time values are employed.

[3] = Single-dose four-period crossover pharmacokinetic study of 75, 150, 300 and 600 mg aliskiren (dosage form 3) in healthy volunteers (Example 3); type: in vivo; conditions: human, plasma; for Cmax / AUC(0-t) / AUC(0-inf): arithmetic mean (SD); for AUC(0-t): read-out: AUC0-96; for Tmax: median, dosage form 3, healthy subjects n = 30, fasted
Method: An open-label, single-dose, four-period, four-treatment, randomized crossover study with a 7-day washout between each period to compare the plasma concentrations of 75, 150, 300 and 600 mg of aliskiren (dosage form 3) in healthy volunteers was carried out. A total of 32 healthy subjects enrolled and 30 completed all study procedures and treatments. Subjects were screened during a 21-Day period and, if eligible, proceeded to a baseline visit prior to each treatment (four baseline evaluations in total). There was an end of study evaluation prior to discharge from the study site. Subjects were randomized into 4 dosing sequence groups with 8 subjects per sequence. The subjects were admitted to the study center at least 12 hours prior to the initial dosing in each period for baseline evaluations, and were confined to the clinic for at least 48 h post-dose in each period. Following an inter-dose interval of at least 7 days, each subject returned to the study site to receive the alternate treatment as per their randomization schedule. All subjects received each of the 75, 150, 300 and 600 mg treatments once during the study according to a randomization schedule. Plasma samples for determination of aliskiren were obtained over 96 hour period after the dose in each treatment segment. For all treatment periods, subjects fasted for a minimum of 10 hours pre-dose to 4 hours post-dose. Subjects were considered to have completed the study when all safety and pharmacokinetic evaluations had been completed.
Blood samples were collected to determine the pharmacokinetics following a single oral dose of 75, 150, 300 or 600 mg of aliskiren. Plasma concentrations of aliskiren were used to determine the pharmacokinetic parameters using non-compartmental methods, and the data are summarized in FIGS. 1, 2, and 3, and Table 1.

[4] = Hygroscopicity of the drug substance; type: physicochemical
[5] = single oral dose 75 mg, healthy subjects n = 30
[6] = single oral dose 150 mg, healthy subjects n = 30
[7] = single oral dose 300 mg, healthy subjects n = 30
[8] = single oral dose 600 mg, healthy subjects n = 30

COCCCOc1cc(C[C@@H](C[C@H](N)[C@@H](O)C[C@H](C(=O)NCC(C)(C)C(N)=O)C(C)C)C(C)C)ccc1OC [aliskiren, 2(S),4(S),5(S),7(S)—N-(3-amino-2,2-dimethyl-3-oxopropyl)-2,7-di(1-methylethyl)-4-hydroxy-5-amino-8-[4-methoxy-3-(3-methoxy-propoxy)phenyl]-octanamide]
Cmin^SS ([1]; Geometric Mean): 25.4 ng/mL | AUCτ ([1]; Max): 2710 ng·h/mL | Cmax^SS ([1]; Max): 478 ng/mL | Cmin^SS ([1]; Max): 41.5 ng/mL | tmax^SS ([1]; Max): 6.00 h | Cmin^SS ([1]; Median): 24.1 ng/mL | AUCτ ([1]; Min): 943 ng·h/mL | Cmax^SS ([1]; Min): 131 ng/mL | Cmin^SS ([1]; Min): 13.1 ng/mL | tmax^SS ([1]; Min): 0.50 h | Cmin^SS ([1]; arithmetic mean): 26.5 ng/mL | AUC ([1]; Geometric Mean): 1600 ng·h/mL | Cmax ([1]; Geometric Mean): 246 ng/mL | Tmax ([1]; Geometric Mean): 1.39 h | AUC ([1]; Median): 1560 ng·h/mL | Cmax ([1]; Median): 234 ng/mL | Tmax ([1]; Median): 1 h | AUC ([1]; arithmetic mean): 1670 ng·h/mL | Cmax ([1]; arithmetic mean): 261 ng/mL | Tmax ([1]; arithmetic mean): 1.93 h | AUC ([2]; about 300 mg every 24 hours, steady state, read-out: arithmetic mean AUC0-τ of aliskiren): 1670 to 2520 ng·h/mL | AUC(0-t) ([2]; single dosage of about 300 mg free base, read-out: arithmetic mean AUC0-96 of aliskiren): 1480 to 1860 ng·h/mL | Cmax [3, 5]: 26 ng/mL | AUC(0-t) [3, 5]: 266 ng·h/mL | AUC(0-inf) ([3]; single oral dose 75 mg, healthy subjects, n = 23): 356 ng·h/mL | Cmax [3, 6]: 72 ng/mL | AUC(0-t) [3, 6]: 530 ng·h/mL | AUC(0-inf) ([3]; single oral dose 150 mg, healthy subjects, n = 29): 627 ng·h/mL | AUC(0-inf) [3, 7]: 1620 ng·h/mL | Cmax [3, 7]: 202 ng/mL | AUC(0-t) [3, 7]: 1480 ng·h/mL | AUC(0-inf) [3, 8]: 3520 ng·h/mL | Cmax [3, 8]: 420 ng/mL | AUC(0-t) [3, 8]: 3240 ng·h/mL | Tmax ([3]; single oral dose 75 mg): 1 h | Tmax ([3]; single oral dose 150 mg): 2.5 h | Tmax ([3]; single oral dose 300 mg): 3 h | Tmax ([3]; single oral dose 600 mg): 2 h | hygroscopicity [4]: highly hygroscopic
